Consider twelve substances from patent US20220135622A1, “ANTIBACTERIAL PEPTIDES AND METHODS OF USE” (priority 2019, published 2022).

Read-outs that look alike come from different tables or passages of the source.

Assay [1] has as its system S. aureus USA300. As to the kind of experiment: MIC assay, S. aureus USA300. Format: cell-based, Staphylococcus aureus. The following applies: Table 7. The procedure, abridged:
(§1)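 Dilute peptide 2-fold in cation-adjusted MHB II to a top final concentration of 400-800 μM. Add bacteria to final OD600 ~0.0002 along with EDTA (0.5 mM E. coli, 0.125 mM USA300). Incubate 20 h at 37° C, then measure OD600.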

Assay [2] has as its system E. coli ΔwaaD. As to the kind of experiment: MIC assay, E. coli ΔwaaD. The following applies: Table 7; + EDTA. The class given is cell-based, Escherichia coli. The procedure: (§2) Bacterial growth conditions. LB or Mueller Hinton II cation-adjusted broth (MHB II, BBL 212322) was prepared according to manufacturer's instructions and supplemented with arabinose at 0.02% for overnight growth or at indicated concentrations in the description of the figures. Bacterial cultures were grown at 37° C. When appropriate, media was supplemented with kanamycin (50 μg/mL), carbenicillin (50 μg/mL), chloramphenicol (12.5 or 25 μg/mL), hygromycin (200 μg/mL), and/or gentamicin (10 μg/mL).
(§3) Peptide sensitivity and MIC assays. Lyophilized peptides (Smartox Biotechnology, CPC Scientific. ABclonal) were solubilized to 10 mM in Tris buffer, pH 8, prior to making a 2-fold dilution series in MHBII cation adjusted broth with highest final assay concentration of 400-800 μM. Bacteria were grown to log phase and added to final OD600˜0.001. The final EDTA concentration was 0.5 mM for E. coli strains and 0.125 mM for USA300. The final volume of 10 μL/well in a 384 well black, clear bottom plate (Corning) was spun <1 min at <250×g and then incubated at 37° C. After 4 h, an equal volume (10 μL) of BacTiter-Glo™ (Promega) was added to each well and luminescence was read after 5 min on an EnVision plate reader (PerkinElmer). To measure the minimal inhibitory concentrations (MICs), bacteria from fresh overnight plates or log phase cultures were diluted with or without EDTA and peptides as described above to final OD600˜0.0002. Plates were incubated at 37° C. for 20 h before measuring OD600 with an EnVision plate reader.

Assay [3] concerns E. coli imp4213. Nature of the assay: MIC assay, E. coli imp4213. The class given is cell-based, Escherichia coli. The following applies: Table 7. The procedure, abridged: as §1
Assay [4] has as its system E. coli BW25113. The class given is cell-based, Escherichia coli. The procedure, abridged: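 Growth inhibition: log-phase cells (OD600 ~0.001), peptides in 2-fold series up to 400–800 μM in MHB II, EDTA 0.5 mM (E. coli) or 0.125 mM (USA300), 4 h at 37 °C, ATP luminescence readout. MICs: inoculum at OD600 ~0.0002, with or without EDTA, 20 h at 37 °C, OD600 endpoint.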
For assay [5], the system named is E. coli ΔwaaD + vect. Nature of the assay: MIC assay, E. coli ΔwaaD + vect. The class given is cell-based, Escherichia coli. The following applies: Table 7. The procedure:
as §2, §3

The test system of assay [6] is E. coli ΔwaaD MCR-1. As to the kind of experiment: MIC assay, E. coli ΔwaaD MCR-1. Format: cell-based, Escherichia coli. As to conditions: Table 7. Here is the method: as §2, §3
The subject of assay [7] is P. aeruginosa. The class given is cell-based, Pseudomonas aeruginosa. The following applies: Table 8. The procedure, abridged: as §1
Assay [8] has as its system A. baumannii. Format: cell-based, Acinetobacter baumannii. As to conditions: Table 8. A digest of the protocol: as §1
The test system of assay [9] is K. pneumoniae. The class given is cell-based, Klebsiella pneumoniae. As to conditions: Table 8. The procedure, abridged:
as §1

Ac-GSSYPMTARRFLEKHGL-NH2 [compound 8]: the “MIC S. aureus USA300” value in [1] is >800 µM. The “MIC E. coli ΔwaaD + EDTA” value in assay [2] turned out to be 800 µM. Besides, the “MIC E. coli imp4213” value in assay [3] was 200 µM. In addition, the “MIC E coli BW25113 + EDTA” value in assay [4] (Table 7) turned out to be 800 µM. In [4] (Table 7, no EDTA), the “MIC E. coli BW25113” value is >800 µM.
Ac-GSSYPMTARRFLEKHGLL-NH2 [compound 7]: the “MIC S. aureus USA300” value in assay [1] was >800 µM. Also, the “MIC E. coli ΔwaaD + EDTA” value in [2] turned out to be 400 µM. Also, the “MIC E. coli imp4213” value in [3] is 200/400. The “MIC E coli BW25113 + EDTA” value in assay [4] (Table 7) is 400 µM. The “MIC E. coli BW25113” value in [4] (Table 7, no EDTA) is >800 µM.
In the case of “Ac-GSSYPMTARRFLEKHGLLR-NH2 [compound 13]”, the “MIC E. coli ΔwaaD + vect.” value in assay [5] is 800 µM. Moreover, the “MIC S. aureus USA300” value in [1] is >800 µM. Further, in assay [2], the “MIC E. coli ΔwaaD + EDTA” value worked out at 200 µM. For the same substance, the “MIC E coli ΔwaaD − MCR1” value in assay [6] stood at 200 µM. Further, the “MIC E. coli imp4213” value in [3] amounted to 200 µM. In addition, the “MIC E coli BW25113 + EDTA” value in [4] (Table 7) turned out to be 800 µM. The “MIC E. coli BW25113” value in assay [4] (Table 7, no EDTA) was >800 µM.
As to Ac-GSSYPMTARRFLEKWGLLD-NH2 [compound 6], in assay [1], the “MIC S. aureus USA300” value was >800 µM. In addition, in assay [2], the “MIC E. coli ΔwaaD + EDTA” value is >800 µM. For the same substance, in assay [3], the “MIC E. coli imp4213” value stood at 400 µM. In addition, in [4] (Table 7), the “MIC E coli BW25113 + EDTA” value turned out to be 800 µM. Also, the “MIC E. coli BW25113” value in [4] (Table 7, no EDTA) was >800 µM.
Consider “Ac-GSSYPMTARRFLEKWGLLR-NH2 (N-terminus and C-terminus assumed) [compound 5]”, for which the “MIC E. coli ΔwaaD + EDTA” value in [2] is 100 µM. For the same substance, the “MIC E coli BW25113 + EDTA” value in [4] (Table 7) was 400 µM.
For the substance Ac-SSYPMTARRFLEKHGLLD-NH2 [compound 9], the “MIC S. aureus USA300” value in [1] was >800 µM. In addition, in assay [2], the “MIC E. coli ΔwaaD + EDTA” value was >800 µM. Besides, in assay [3], the “MIC E. coli imp4213” value was determined as 800 µM. In [4] (Table 7), the “MIC E coli BW25113 + EDTA” value was >800 µM. For the same substance, in assay [4] (Table 7, no EDTA), the “MIC E. coli BW25113” value is >800 µM.
Consider Ac-YPMTARRFLEKHGL-NH2 [compound 12], for which the “MIC E. coli ΔwaaD + EDTA” value in assay [2] was determined as 400 µM. Also, in assay [4] (Table 7), the “MIC E coli BW25113 + EDTA” value was 800 µM.
Consider Ac-YPMTARRFLEKHGLL-NH2 [compound 11], for which the “MIC S. aureus USA300” value in [1] was >800 µM. The “MIC E. coli ΔwaaD + EDTA” value in assay [2] was 400 µM. For the same substance, the “MIC E. coli imp4213” value in assay [3] came out at 200 µM. For the same substance, the “MIC E coli BW25113 + EDTA” value in assay [4] (Table 7) came out at 400 µM. Also, in assay [4] (Table 7, no EDTA), the “MIC E. coli BW25113” value is >800 µM.
Turning to Ac-YPMTARRFLEKHGLLD-NH2 [compound 10], in assay [1], the “MIC S. aureus USA300” value is >800 µM. The “MIC E. coli ΔwaaD + EDTA” value in [2] is >800 µM. Besides, the “MIC E. coli imp4213” value in assay [3] was 800 µM. The “MIC E coli BW25113 + EDTA” value in assay [4] (Table 7) was 800 µM. Further, in assay [4] (Table 7, no EDTA), the “MIC E. coli BW25113” value is >800 µM.
Take Ac-YPMTARRYLEKWGLLR-NH2 [compound 56]: the “MIC E. coli ΔwaaD + vect.” value in [5] was 400 µM. The “MIC R. aeruginosa” value in assay [7] was 800 µM. For the same substance, in assay [8], the “MIC A. baumannii” value amounted to 400 µM. Further, the “MIC S. aureus USA300” value in assay [1] was >400 µM. The “MIC K. pneumoniae” value in [9] was determined as 800 µM. Moreover, the “MIC E coli ΔwaaD − MCR1” value in [6] came out at 800 µM. Besides, the “MIC E. coli imp4213” value in [3] came out at 25 µM. Further, the “MIC E. coli BW25113” value in assay [4] (Table 7, no EDTA) was >400 µM.
In the case of Ac-YPMTFRRFLEKWGLLR-NH2 [compound 59], the “MIC E. coli ΔwaaD + vect.” value in [5] was 25 µM. In addition, in assay [7], the “MIC R. aeruginosa” value was >800 µM. For the same substance, the “MIC A. baumannii” value in assay [8] is 50 µM. In addition, in assay [1], the “MIC S. aureus USA300” value was >400 µM. Moreover, in [9], the “MIC K. pneumoniae” value worked out at 800 µM. Further, in assay [6], the “MIC E coli ΔwaaD − MCR1” value came out at 50 µM. Besides, the “MIC E. coli imp4213” value in assay [3] amounted to 12.5 µM. In assay [4] (Table 8), the “MIC E. coli BW25113” value was determined as 400 µM.
As for Ac-YPMTMRRFLEKWGLLR-NH2 [compound 58], the “MIC E. coli ΔwaaD + vect.” value in [5] is 50/25. In addition, in [7], the “MIC R. aeruginosa” value was >800 µM. Further, in [8], the “MIC A. baumannii” value came to 25 µM. Besides, the “MIC S. aureus USA300” value in assay [1] was >400 µM. The “MIC K. pneumoniae” value in [9] came out at 400 µM. Also, the “MIC E coli ΔwaaD − MCR1” value in assay [6] worked out at 50 µM. Further, the “MIC E. coli imp4213” value in assay [3] was 12.5 µM. Also, the “MIC E. coli BW25113” value in [4] (Table 8) came to 400 µM.
